Experimental data: publication PMC12467246, “Characterization of the Anticholinesterase and Antioxidant Properties of Phytochemicals from Moringa oleifera as a Potential Treatment for Alzheimer’s Disease” (Biomedicines, 2025)
Where two headings read alike, the source gives them in different places.

Columns and labels:
[1] = Nitric oxide (NO) radical-scavenging assay; settings: sodium nitroprusside, 2.5 h 25 °C, Griess reagent, 540 nm
[2] = Hydroxyl radical-scavenging assay; settings: Fenton reaction, 45 min 37 °C, 532 nm
[3] = DPPH free radical-scavenging assay; settings: 37 °C, 40 min, 517 nm
[4] = ABTS radical-scavenging assay; settings: 5 min in the dark, 750 nm
[5] = target: T1, human butyrylcholinesterase (hBuChE) (Homo sapiens, UniProt P06276); test: biochemical
T1 construct: purchased Sigma B4186
T1 sequence (P06276 29-602): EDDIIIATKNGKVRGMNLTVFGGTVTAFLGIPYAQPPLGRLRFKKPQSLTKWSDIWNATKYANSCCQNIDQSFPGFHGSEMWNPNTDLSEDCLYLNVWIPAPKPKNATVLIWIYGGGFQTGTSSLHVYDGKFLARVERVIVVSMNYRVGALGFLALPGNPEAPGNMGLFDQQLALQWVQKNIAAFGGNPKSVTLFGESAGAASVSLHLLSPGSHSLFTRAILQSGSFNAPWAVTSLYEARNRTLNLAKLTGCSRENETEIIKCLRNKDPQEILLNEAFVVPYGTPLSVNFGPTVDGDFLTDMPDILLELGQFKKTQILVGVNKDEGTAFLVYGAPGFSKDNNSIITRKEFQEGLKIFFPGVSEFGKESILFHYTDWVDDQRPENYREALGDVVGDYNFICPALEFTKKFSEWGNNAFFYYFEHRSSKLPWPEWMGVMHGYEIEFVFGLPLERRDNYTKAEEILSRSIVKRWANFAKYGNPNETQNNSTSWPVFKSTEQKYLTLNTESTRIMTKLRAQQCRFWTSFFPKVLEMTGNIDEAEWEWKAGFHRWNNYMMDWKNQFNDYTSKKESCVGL

[6] = target: human acetylcholinesterase (hAChE) (Homo sapiens, UniProt P22303); test: biochemical
Sequence of human acetylcholinesterase (hAChE) (P22303 32-614): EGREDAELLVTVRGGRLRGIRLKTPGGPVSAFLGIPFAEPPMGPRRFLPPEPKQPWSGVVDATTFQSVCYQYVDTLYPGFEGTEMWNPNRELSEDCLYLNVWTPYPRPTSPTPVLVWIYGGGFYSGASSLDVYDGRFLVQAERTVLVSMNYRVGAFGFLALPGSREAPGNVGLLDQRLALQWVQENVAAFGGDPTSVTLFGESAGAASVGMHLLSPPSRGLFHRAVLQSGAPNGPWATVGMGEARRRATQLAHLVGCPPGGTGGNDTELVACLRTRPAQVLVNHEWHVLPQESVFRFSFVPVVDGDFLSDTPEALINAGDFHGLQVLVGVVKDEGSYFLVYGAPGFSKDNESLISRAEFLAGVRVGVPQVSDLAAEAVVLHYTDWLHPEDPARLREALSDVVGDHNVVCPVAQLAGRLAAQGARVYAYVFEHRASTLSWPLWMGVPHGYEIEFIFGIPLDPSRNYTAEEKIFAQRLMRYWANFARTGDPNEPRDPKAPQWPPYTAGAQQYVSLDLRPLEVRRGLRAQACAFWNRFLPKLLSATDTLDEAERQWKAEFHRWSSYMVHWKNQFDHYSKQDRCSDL

[7] = target: T2, butyrylcholinesterase from horse (equine) serum (esBuChE) (Equus caballus, UniProt P81908); test: biochemical
T2 construct: butyrylcholinesterase from horse (equine) serum (esBuChE); purchased Sigma C7512; host or cells: horse serum
T2 sequence (P81908 whole entry): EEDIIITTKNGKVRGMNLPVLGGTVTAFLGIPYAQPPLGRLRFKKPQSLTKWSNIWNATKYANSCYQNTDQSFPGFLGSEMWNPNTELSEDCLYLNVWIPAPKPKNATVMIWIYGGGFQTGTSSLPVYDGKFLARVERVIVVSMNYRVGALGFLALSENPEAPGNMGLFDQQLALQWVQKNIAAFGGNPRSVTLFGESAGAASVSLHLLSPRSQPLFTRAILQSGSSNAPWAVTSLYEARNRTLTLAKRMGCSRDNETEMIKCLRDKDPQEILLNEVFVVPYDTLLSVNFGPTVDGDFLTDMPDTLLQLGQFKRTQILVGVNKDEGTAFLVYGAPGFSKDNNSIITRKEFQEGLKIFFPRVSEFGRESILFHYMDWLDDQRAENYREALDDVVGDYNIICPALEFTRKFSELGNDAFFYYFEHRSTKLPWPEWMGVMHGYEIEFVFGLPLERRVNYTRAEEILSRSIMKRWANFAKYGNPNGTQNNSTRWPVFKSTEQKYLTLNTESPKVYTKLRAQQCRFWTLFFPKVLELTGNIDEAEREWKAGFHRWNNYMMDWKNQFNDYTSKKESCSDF

[8] = tested on: hAChE; set-up: method as in PMID 32746727; settings: ref [59]; read-out: IC50 against hAChE; cited from earlier work
[9] = Lipid peroxidation inhibition (LPI) assay; set-up: species or system bovine; settings: sodium nitroprusside as pro-oxidant, 37 °C 2 h, MDA at 532 nm
[10] = Ferric reducing antioxidant power (FRAP) assay; settings: 700 nm
[11] = tested on: AChE; settings: rat brain homogenates, in vitro; ref [62]; cited from earlier work
[12] = ref [62]; read-out: IC50 values, panel of antioxidant assays; cited from earlier work
[13] = tested on: BuChE; settings: rat brain homogenates, in vitro; ref [62]; cited from earlier work
[14] = tested on: BuChE; settings: ref [55],[56],[57]; cited from earlier work
[15] = tested on: AChE; settings: ref [55],[56],[57]; cited from earlier work

Cc1c(C)c2c(c(C)c1O)CC[C@@](C)(CCC[C@H](C)CCC[C@H](C)CCCC(C)C)O2 [α-Tocopherol, α-tocopherol, reference compound]
EC50 [1]: 368 ± 34 µM | EC50 [2]: 53 ± 15 µM | EC50 [3]: 369 ± 34 µM | EC50 [4]: 414 ± 22 µM

O=C(/C=C/c1ccc(O)c(O)c1)O[C@@H]1C[C@](O)(C(=O)O)C[C@@H](O)[C@H]1O [Chlorogenic acid]
IC50 ([5]; read-out: Enzyme IC50 hBuChE): > 1000 µM | IC50 ([6]; read-out: Enzyme IC50 hAChE): > 1000 µM | IC50 ([7]; read-out: Enzyme IC50 esBuChE): > 1000 µM | IC50 [8]: 410 µM

O=C(O)c1cc(O)c(O)c(O)c1 [Gallic acid, reference compound]
EC50 [9]: 372 ± 33 µM | EC50 [1]: 972 ± 107 µM | EC50 [2]: 80 ± 23 µM | EC50 [10]: 1240 ± 49 µM | EC50 [3]: 86 ± 15 µM | EC50 [4]: 53 ± 15 µM

C[C@@H]1O[C@@H](OC[C@H]2O[C@@H](Oc3c(-c4ccc(O)c(O)c4)oc4cc(O)cc(O)c4c3=O)[C@H](O)[C@@H](O)[C@@H]2O)[C@H](O)[C@H](O)[C@H]1O [Rutin, quercetin-3-rutinoside]
IC50 [11]: 219 µM | EC50 [9]: 26 ± 3 µM | EC50 [1]: 383 ± 87 µM | IC50 [5]: 761 ± 106 µM | EC50 [2]: 90 ± 21 µM | IC50 [12]: 184 to 938 µM | IC50 [13]: 288 µM | EC50 [10]: 1940 ± 131 µM | EC50 [3]: 305 ± 55 µM | IC50 [6]: > 1000 µM | EC50 [4]: 1720 ± 206 µM | IC50 [7]: > 1000 µM

O=C1O[C@H]([C@@H](O)CO)C(O)=C1O [L-Ascorbic acid, L-ascorbic acid, reference compound]
EC50 [9]: 182 ± 24 µM | EC50 [1]: 720 ± 127 µM | EC50 [4]: 526 ± 110 µM

O=c1c(O)c(-c2ccc(O)c(O)c2)oc2cc(O)cc(O)c12 [Quercetin]
IC50 [14]: ~20 µM | IC50 [15]: […]

CCN(CC)C(C)CN1c2ccccc2Sc2ccccc21 (stereo not drawn) [Ethopropazine, reference compound]
IC50 [5]: 13.8 ± 0.8 µM | IC50 [7]: 0.01 µM

O=c1c(O[C@@H]2O[C@H](CO)[C@@H](O)[C@H](O)[C@H]2O)c(-c2ccc(O)c(O)c2)oc2cc(O)cc(O)c12 [Quercetin 3-β-D-glucoside, quercetin 3-β-D-glucoside]
EC50 [9]: 673 ± 165 µM | EC50 [1]: 261 ± 77 µM | IC50 [5]: 931 ± 49 µM | EC50 [2]: 55 ± 12 µM | EC50 [10]: 1780 ± 107 µM | EC50 [3]: 224 ± 27 µM | IC50 ([6]; read-out: Enzyme IC50 hAChE): 971 ± 157 µM | EC50 [4]: 436 ± 32 µM | IC50 [7]: > 1000 µM

O=C(C=Cc1ccc(O)c(O)c1)OC1C(O)CC(O)(C(=O)O)CC1O (stereo not drawn) [4-O-caffeoylquinic acid]
EC50 [9]: 207 ± 63 µM | EC50 [1]: 125 ± 30 µM | IC50 ([5]; read-out: Enzyme IC50 hBuChE): 770 ± 116 µM | EC50 [2]: 120 ± 30 µM | EC50 [10]: 1290 ± 45 µM | EC50 [3]: 431 ± 28 µM | IC50 ([6]; read-out: Enzyme IC50 hAChE): 782 ± 106 µM | EC50 [4]: 382 ± 44 µM | IC50 ([7]; read-out: Enzyme IC50 esBuChE): 903 ± 139 µM
